Like-named read-outs stand apart in the source and are kept apart here.
Key:
[1] = target: NMDA receptor ([3H]-(+)-MK-801 site) (Rattus norvegicus, UniProt P35439); assay: [3H]-(+)-MK-801 receptor binding, rat cortex membranes
[2] = target: T1, NMDA receptors (Rattus norvegicus, UniProt P35439); assay: Patch clamp, NMDA-induced currents in hippocampal neurones; assay type: cell-based; settings: Table 1; mean, N=6; read-out: NMDA IC50
T1 construct: Patch clamp recordings were made from these neurones; endogenous in cells; host or cells: primary cultured hippocampal neurones from rat embryos (E20 to E21)

[3] = Accelerating rotarod test, ataxia (motor coordination); assay type: in vivo, mice; settings: mouse, in vivo, ip; NMR female mice, accelerating rotarod
Description: (§1) NMR female mice (18-28 g) housed 5 per cage were used for the maximal electroshock (MES) and motor impairment tests. All animals were kept with water and food ad libitum under a 12 hour light-dark cycle (light on at 6 a.m.) and at a controlled temperature (20±0.5C). All experiments were performed between 10 a.m. and 5 p.m. Tested agents were injected 30 min. i.p. before the induction of convulsions if not stated otherwise (see below). All compounds were dissolved in 0.9% saline.
(§2) The MES test was performed together with tests for myorelaxant action (traction reflex) and motor coordination (rotarod). For the traction reflex test mice were placed with their forepaws on a horizontal rod and were required to place all 4 paws on the wire within 10 seconds. To test ataxia (motor coordination) mice were placed on an accelerating rotarod and were required to remain on the rod for 1 minute. […] These tests were followed by MES (100 Hz, 0.5 second shock duration, 50 mA shock intensity, 0.9 ms impulse duration, Ugo Basile) applied through corneal electrodes. The presence of tonic convulsions was scored (tonic extension of hind paws with minimum angle to the body of 90). The aim was to obtain ED50s for all parameters scored (anticonvulsive activity and motor side effects) with use of the Litchfield Wilcoxon test for quantal dose responses. Division of the ED50 for side effects (ataxia or myorelaxation) by the ED50 for antagonism of electroshock convulsions was used as a therapeutic index (TI).
(§3) 4-7 doses of antagonists were tested in each of the in vivo tests (5-8 animals per dose) to allow calculation of graded ED50s according to probit analysis (Litchfield and Wilcoxon) with correction for 0% to 100% effects. ED50s are presented with 95% confidence limits (Cl). Pearson product moment correlation analysis (Sigma Stat, Jandel Scientific) was used to compare in vitro potencies and in vivo anticonvulsant activity.

[4] = Traction reflex test, myorelaxant action; assay type: in vivo, mice; settings: mouse, in vivo, ip; NMR female mice, i.p., traction reflex; read-out: Myorelaxation ED50
Description: as §1, §2, §3

[5] = tested on: maximal electroshock (MES) tonic convulsions; assay: Maximal electroshock (MES) test, anticonvulsive activity; assay type: in vivo, mice; settings: for ED50: Mus musculus, ip, read-out: MES ED50
Description: as §1, §2, §3

[6] = tested on: ataxia (rotarod); assay: Accelerating rotarod test, ataxia (motor coordination); assay type: in vivo, mice; settings: for Therapeutic index (ataxia ED50 / MES ED50): ED50 ataxia divided by ED50 MES
Description: as §1, §2, §3

[7] = tested on: myorelaxation (traction reflex); assay: Traction reflex test, myorelaxant action; assay type: in vivo, mice; settings: for Therapeutic index (myorelaxation ED50 / MES ED50): ED50 myorelaxation divided by ED50 MES
Description: as §1, §2, §3

[8] = NMR female mice, i.p. 30 min before convulsions
[9] = read-out: [^3H]MK-801 Ki, rat cortex membranes, [3H]-(+)-MK-801 5 nM, glycine 10 μM, glutamate 10 μM, mean

| Molecule | Ki [1] [µM] | IC50 [2] [µM] | ED50 at 30 min [3] [mg/kg] | ED50 at 30 min [4] [mg/kg] | ED50 [5] [mg/kg] | Therapeutic index (ataxia ED50 / MES ED50) [6] | Therapeutic index (myorelaxation ED50 / MES ED50) [7] | ED50 [5, 8] [mg/kg] | Ki [1, 9] [µM] | Ataxia ED50 ([6]; NMR female mice, i.p., accelerating rotarod) | Myorelaxation ED50 ([7]; NMR female mice, i.p., traction reflex) | MES ED50 [5, 8] |
| --- | --- | --- | --- | --- | --- | --- | --- | --- | --- | --- | --- | --- |
| CCC1(CC)CC(=CC(C)N)CC(C)(C)C1 (stereo not shown) [MRZ 2008, 1-(3,3-Diethyl-5,5-dimethylcyclohexylidene)-2-propanamine] | 8.07 | 2.74 |  |  |  |  |  |  |  |  |  |  |
| CC(C)=CCC1(N2CCCCC2)CC(C)(C)CC(C)(C)C1 [MRZ 2015, 1-[3,3,5,5-Tetramethyl-1-(3-methyl-2-butenyl)cyclohexyl]piperidine] | 83 |  | > 50 | > 50 | > 50 |  |  |  |  |  |  |  |
| CC(C)(N)CC1=CC(C)(C)CC(C)(C)C1 [MRZ 2010, 2-Methyl-1-(3,3,5,5-tetramethyl-1-cyclohexen-1-yl)-2-propanamine] | 44.9 |  | > 50 | > 50 | > 50 |  |  |  |  |  |  |  |
| CC(C)(N)C=C1CC(C)(C)CC(C)(C)C1 [MRZ 2019, 2-Methyl-1-(3,3,5,5-tetramethylcyclohexylidene)-2-propanamine] | 73.1 |  | > 50 | > 50 | > 50 |  |  |  |  |  |  |  |
| CC(N)C1=CC(C)(C)CC(C)(C)C1 (stereo not shown) [MRZ 2/749, 1-(1-Aminoethyl)-3,3,5,5-tetramethylcyclohex-1-ene] | 10.8 |  | 37.1 | 38.6 |  | 1.4 | 1.5 | 26.6 |  |  |  |  |
| CC1=CC(C)(N)CC(C)(C)C1 (stereo not shown) [MRZ 2002, 1,3,5,5-Tetramethyl-2-cyclohexen-1-amine] | 5.7 |  | 53 | 34 | 26.1 | 2.0 | 1.3 |  |  |  |  |  |
| C=CCC1(N2CCCCC2)CC(C)(C)CC(C)(C)C1 [MRZ 2013, 1-(1-Allyl-3,3,5,5-tetramethylcyclohexyl)piperidine] | 49.2 |  | > 50 | > 50 | > 50 |  |  |  |  |  |  |  |
| CC(N)C=C1CC(C)(C)CC(C)(C)C1 (stereo not shown) [MRZ 2006, 1-(3,3,5,5-Tetramethylcyclohexylidene)-2-propanamine] | 10.1 |  | 40.9 | 44.6 |  | 0.7 | 0.8 | 57 |  |  |  |  |
| CC1=CC(C)(C)CC(C)(C)C1N.Cl (stereo not shown) [MRZ 2/657, 1-amino-2,4,4,6,6-pentamethyl-cyclohex-2-en Hydrochloride] | 13.4 |  | > 30 | > 30 |  |  |  | > 30 |  |  |  |  |
| C#CCC1(N2CCCCC2)CC(C)(C)CC(C)(C)C1 [MRZ 2016, 1-[3,3,5,5-Tetramethyl-1-(2-propynyl)cyclohexyl]piperidine] | 42.2 | 71.2 | > 50 | > 50 | > 50 |  |  |  |  |  |  |  |
| CC1(C)C=C(N)CC(C)(C)C1 [MRZ 2/1005, 1-Amino-3,3,5,5-Tetramethyl-1-cyclohexene] | 13.6 |  | 26.8 | 35.7 |  | 1.3 | 1.7 | 20.5 |  |  |  |  |
| C=C[C@@]1(C)C[C@H](C)C[C@@](C)(N)C1 (relative stereo) [MRZ 2009, cis-3-Vinyl-1,3,trans-5-trimethylcyclohexylamine] | 22.3 | 58.2 | > 50 | > 50 |  |  |  | > 50 |  |  |  |  |
| Neramexane Sulphate [MRZ 2000, reference compound] |  |  |  |  |  |  |  |  | 1.68 |  |  |  |
| CC1=CC(N)CC(C)(C)C1 (stereo not shown) [MRZ 2/1023, 1-Amino-3,3,5-trimethyl-2-cyclohexene] |  |  |  |  |  |  |  |  | 49.6 | >50 | >50 | >50 |
| CC(CN)=C1CC(C)(C)CC(C)(C)C1 [MRZ 2020, 2-(3,3,5,5-Tetramethylcyclohexylidene)propanamine] | 7.45 |  | 27.6 | 34.5 |  | 1.1 | 1.3 | 26.1 |  |  |  |  |

From patent publication US6828462B2, “Unsaturated 1-amino-alkylcyclohexane NMDA, 5HT3, and neuronal nicotinic receptor antagonists” (Merz Pharma GmbH & Co. KGAA, priority 2001, dated 2004)
